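How tested: cells in 96-well plates exposed to compound for 48 hours at five concentrations. Definition used: TGI = concentration required for complete inhibition of growth.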
What was measured:
Test in all cases: growth of human tumour cells (NCI), 48 h
DLD-1 colon = test system: DLD-1 colon
DMS 114 small cell lung = test system: DMS 114 small cell lung
DMS 273 small cell lung = test system: DMS 273 small cell lung
KM20L2 colon = test system: KM20L2 colon
LXFL 529 NSCLC = test system: LXFL 529 NSCLC
RXF-631 renal = test system: RXF-631 renal
SNB-78 CNS = test system: SNB-78 CNS
XF 498 CNS = test system: XF 498 CNS
HOP-18 NSCLC = test system: HOP-18 NSCLC

Structure (SMILES) | TGI (DLD-1 colon) [µM] | TGI (DMS 114 small cell lung) [µM] | TGI (DMS 273 small cell lung) [µM] | TGI (KM20L2 colon) [µM] | TGI (LXFL 529 NSCLC) [µM] | TGI (RXF-631 renal) [µM] | TGI (SNB-78 CNS) [µM] | TGI (XF 498 CNS) [µM] | TGI (HOP-18 NSCLC) [µM]
COc1ccc(/C=C/c2cc(OC)c(OCc3ccccc3)c(OC)c2)cc1 | > 100 | > 100 | > 100 | > 100 | > 100 | > 100 | > 100 | > 100 | 
O=C(Nc1nc2ncn(CCO)c2c(=O)[nH]1)c1ccccc1 | > 100 | > 100 | > 100 | > 100 | > 100 |  | > 100 |  | > 100
COC(=O)c1ccc(C=C(C#N)C#N)cc1 | 47.9 | 49.4 | 35.2 | > 100 | 37.4 | > 100 |  |  | > 100
Nc1nc2ncn(CC(O)CO)c2c(=O)[nH]1 (stereo not given) | > 100 | > 100 | > 100 | > 100 | > 100 | > 100 | > 100 |  | > 100
CC(=O)Nc1ccc(S(=O)(=O)NN(C)S(=O)(=O)c2ccc(C)cc2)cc1 | > 100 | > 100 |  | > 100 |  |  |  |  | 
O=C(N/N=C(\C1=Nc2ccc(Cl)cc2NC1O)C(O)/C=C/c1ccccc1)c1ccncc1 (stereo not given) | > 100 | > 100 | > 100 | > 100 | > 100 |  | > 100 | > 100 | 
NC(CCCCNCc1ccccc1O)C(=O)O (stereo not given) | > 100 | > 100 | > 100 | > 100 | > 100 |  | > 100 |  | > 100
CSC(=N)N1N=C2/C(=C/c3ccccc3)CCC[C@H]2[C@H]1c1ccccc1 | 14.5 | 7.83 | 11.8 | 5.97 | 16.7 |  | 34.6 | 23.5 | 14.3
COc1cc(-c2cc(=O)c3ccccc3[nH]2)cc(OC)c1OC | > 75 | > 75 | > 75 | > 75 | > 75 |  | > 75 |  | 
CCc1ccccc1NC(=O)CC1NC(=O)CS1 (stereo not given) | > 100 | > 100 | > 100 | > 100 | > 100 | > 100 | > 100 | > 100 | > 100

From PubChem BioAssay (NCI)
